Assay results as given in US12410164B2, “Heterocyclic compounds and medical use thereof” (FONDAZIONE TELETHON, priority 2018, dated 2025).
Entries after “also recorded” stand apart in the source; their conditions may differ.

What was measured:
Assay type in all cases: cell-based
F508del-CFTR [1] = molecular target: T1, F508del-CFTR (Homo sapiens, UniProt P13569, DEL508-508); experiment: HS-YFP kinetic fluorescence (iodide quenching rate) assay in CFBE41o− cells; parameters: expressed in transfected cells; host or cells: CFBE41o- cells with expression of F508del-CFTR and HS-YFP (generated as in Sondo et al. 2011)
Method in brief: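 CFBE41o- cells co-expressing F508del-CFTR and HS-YFP, treated 24 h with compound (0.1-0.2% DMSO), then stimulated with 20 μM forskolin plus 50 μM genistein. Fluorescence was read for 14 s during NaI injection. Background-subtracted, normalized traces were fitted exponentially to give maximum quenching rate (QR).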

F508del-CFTR [2] = molecular target: T1, F508del-CFTR; experiment: Analysis of F508del-CFTR maturation by immunoblot in CFBE41o− cells; parameters: expressed in transfected cells; host or cells: CFBE41o- cells with expression of F508del-CFTR and HS-YFP (generated as in Sondo et al. 2011); conditions: compound 10 μM plus VX-809 1 μM, 24 hr
Procedure: CFBE41o− cells were grown to confluence on 60-mm diameter dishes and lysed in RIPA buffer containing a complete protease inhibitor (Roche; cat. n. 11697498001). Cell lysates were centrifuged at 12000 rpm at 4° C. for 10 min. Supernatant protein concentration was calculated using the BCA assay (Euroclone; cat. n. EMP014500) following the manufacturer's instructions. Equal amounts of total protein content (30 μg) were separated onto 10% Criterion TGX Precast gels (Bio-rad laboratories Inc.; cat. n. 4561033), transferred to nitrocellulose membrane with Trans-Blot Turbo system (Bio-rad Laboratories Inc.) and analyzed by Western blotting. Primary antibody for CFTR was anti-CFTR 596 (University of North Carolina at Chapel Hill, and Cystic Fibrosis Foundation Therapeutics, see Cui L, et al. J. Mol Biol 2007, 365, 981-994) at 1:5000 dilution. As secondary antibody, anti-mouse HRP-conjugated Ab 97023 (Abcam) was used at 1:10000 dilution. Results were subsequently visualized by chemiluminescence using the SuperSignal West Femto Substrate (Thermo Scientific) and the Molecular Imager ChemiDoc XRS System.
To analyze the mechanism of action of the compounds of the invention, two types of experiments were carried out. In the first type of experiment, the electrophoretic mobility of F508del-CFTR protein was determined by immunoblot assay. This is a frequently used method to assess the effect of correctors at the protein level. In control conditions, F508del-CFTR migrates predominantly as a single band of 150 kDa called “band B”. This is the immature form of the protein residing in the endoplasmic reticulum. When the protein folding and stability is improved by correctors, an additional band appears at higher molecular weight (170 kDa). This is the so-called band C, which represents the mature form of the CFTR protein that has reached the Golgi compartment and acquired full glycosylation.

G542X-CFTR = experiment: HS-YFP assay in null CFBE41o− cells transfected with G542X-CFTR; conditions: G418 0.5 mg/ml alone, 24 hr
Procedure: To assess the function and pharmacological sensitivity of G542X-CFTR mutant, inventors used the null version of CFBE41o− cells, i.e. cells with negligible expression of endogenous CFTR and without HS-YFP. Such cells were transiently transfected with the plasmid coding for HS-YFP alone or in combination with: empty plasmid, plasmid coding for wild type CFTR, or plasmid coding for G542X-CFTR. For transfection, cells were seeded in 96-well microplates (30,000 cells/well) in 150 μl of antibiotic-free culture medium. After 24 hours, cells were transfected with the desired plasmids. For each well, 0.2 μg of total plasmid DNA and 0.5 μl of Lipofectamine 2000 (Invitrogen) were first pre-mixed in 50 μl of OPTIMEM (Invitrogen) to generate transfection complexes (60 minutes at room temperature), and then added to the cells. After 24 hour, the complexes were removed by replacement with fresh culture medium. The HS-YFP functional assay was performed after further 24 hours.
To assess the ability of compounds of present invention to improve the rescue of premature stop codon (class I) mutations, we carried out experiments on G542X-CFTR (FIG. 7). Null CFBE41o− cells, devoid of endogenous CFTR expression, were transiently transfected with empty, wild type CFTR or G542X-CFTR plasmids. All cells also received the HS-YFP plasmid to allow functional determination of CFTR-dependent anion transport. […] Where indicated, cells with G542X-CFTR were also treated with G418 (0.5 mg/ml) for 24 hr to induce readthrough of the stop codon mutation, with and without correctors (VX-809 and/or PP028, labeled as VX and PP). […] The activity resulting from wild type CFTR is also shown for comparison.

T1 sequence (P13569 with tags, fused parts or gaps DEL508-508): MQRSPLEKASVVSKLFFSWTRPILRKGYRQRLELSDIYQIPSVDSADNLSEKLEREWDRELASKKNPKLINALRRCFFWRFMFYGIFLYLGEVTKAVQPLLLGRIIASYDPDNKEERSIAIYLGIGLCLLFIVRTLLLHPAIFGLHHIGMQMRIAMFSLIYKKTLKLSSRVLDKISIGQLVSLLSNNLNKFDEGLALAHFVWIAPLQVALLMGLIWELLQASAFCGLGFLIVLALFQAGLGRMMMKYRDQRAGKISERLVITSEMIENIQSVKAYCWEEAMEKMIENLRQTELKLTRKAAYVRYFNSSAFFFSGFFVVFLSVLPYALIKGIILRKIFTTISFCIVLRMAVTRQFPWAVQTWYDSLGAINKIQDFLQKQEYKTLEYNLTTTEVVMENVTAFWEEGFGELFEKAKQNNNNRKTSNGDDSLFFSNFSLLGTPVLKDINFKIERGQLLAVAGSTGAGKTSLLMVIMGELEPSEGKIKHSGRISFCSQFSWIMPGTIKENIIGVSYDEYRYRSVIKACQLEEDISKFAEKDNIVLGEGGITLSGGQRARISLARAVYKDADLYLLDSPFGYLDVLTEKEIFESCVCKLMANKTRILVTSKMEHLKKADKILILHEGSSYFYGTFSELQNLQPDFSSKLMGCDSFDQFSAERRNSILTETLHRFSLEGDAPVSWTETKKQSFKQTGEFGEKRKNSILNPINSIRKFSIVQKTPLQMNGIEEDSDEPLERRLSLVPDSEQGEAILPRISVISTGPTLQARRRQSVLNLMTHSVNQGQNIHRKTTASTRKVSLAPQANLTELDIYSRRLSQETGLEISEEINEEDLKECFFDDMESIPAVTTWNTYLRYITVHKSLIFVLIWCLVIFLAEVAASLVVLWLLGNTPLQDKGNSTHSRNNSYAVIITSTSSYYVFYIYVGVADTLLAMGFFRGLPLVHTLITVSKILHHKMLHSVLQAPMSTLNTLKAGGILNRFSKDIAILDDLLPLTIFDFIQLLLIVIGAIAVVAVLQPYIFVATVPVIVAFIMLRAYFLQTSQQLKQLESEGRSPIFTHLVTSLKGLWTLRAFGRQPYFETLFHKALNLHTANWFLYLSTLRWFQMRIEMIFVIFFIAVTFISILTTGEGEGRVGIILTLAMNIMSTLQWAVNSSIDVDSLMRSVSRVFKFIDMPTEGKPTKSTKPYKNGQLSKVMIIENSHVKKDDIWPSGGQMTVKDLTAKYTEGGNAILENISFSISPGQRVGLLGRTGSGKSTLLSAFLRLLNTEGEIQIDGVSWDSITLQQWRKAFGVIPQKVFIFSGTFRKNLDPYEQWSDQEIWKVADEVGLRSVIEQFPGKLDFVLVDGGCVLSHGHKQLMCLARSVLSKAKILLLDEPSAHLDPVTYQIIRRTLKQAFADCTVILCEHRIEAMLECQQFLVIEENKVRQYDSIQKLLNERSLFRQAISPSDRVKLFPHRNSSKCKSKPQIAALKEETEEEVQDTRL

Row | AI (%) additivity index (F508del-CFTR [1]; Table 1, compound at 10 μM plus VX-809, (QRTOT − QRVX)/QRVX, HS-YFP assay) [%] | structure-activity comparison of corrector potency/activity (F508del-CFTR [1]; relative to the analogue) | SMILES | band C (mature form) expression versus VX-809 alone (F508del-CFTR [2]) | CFTR activity (QR) in G542X-CFTR cells (G542X-CFTR)
1 | 261 | Increased activity | Cc1ccc(Cn2c(C(=O)OC(C)C)c(Br)c3c2-c2[nH]c(=O)c(S(=O)(=O)c4ccccc4)cc2CC3)cc1 [PP034, Propan-2-yl 7-(benzenesulfonyl)-3-bromo-1-[(4-methylphenyl)methyl]-8-oxo-4,5,8,9-tetrahydro-1H-pyrrolo[3,2-h]quinoline-2-carboxylate] | markedly enhances the abundance of the mature form of the protein; also recorded: marked increase in band C expression | –
2 | – | – | CN[C@@H]1[C@@H](O)[C@@H](O[C@@H]2[C@@H](O)[C@H](O[C@H]3O[C@H]([C@@H](C)O)[C@@H](O)[C@H](O)[C@H]3N)[C@@H](N)C[C@H]2N)OC[C@]1(C)O [G418, reference compound] | – | modest but significant increase in CFTR activity
